Laboratory results reported in patent publication US9815850B2, “Compounds, compositions and methods” (Denali Therapeutics Inc., priority 2016, dated 2017).

Biological target: GST-hRIPK1 (8-327) (Homo sapiens (Human), UniProt Q13546)
Assay: Fluorescent Polarization Binding (FP Binding) assay
Conditions: 10 nM GST-hRIPK1 (8-327), 5 nM fluorescent labeled ligand; read-out: FP IC50
Experimental: Fluorescent Polarization Binding (FP Binding) assay (Berger S. B. et al. […] Maki J. L. et al. […] Test Compounds were serially diluted in DMSO at 100 fold final concentrations in the assay (1% DMSO final). […] For negative control the enzyme addition was replaced by assay buffer only. After addition of 5 μL of fluorescent labeled ligand at twice the final concentrations in assay buffer, the plate was incubated at RT for 30 min.

Chain of GST-hRIPK1 (8-327) (Q13546 8-327): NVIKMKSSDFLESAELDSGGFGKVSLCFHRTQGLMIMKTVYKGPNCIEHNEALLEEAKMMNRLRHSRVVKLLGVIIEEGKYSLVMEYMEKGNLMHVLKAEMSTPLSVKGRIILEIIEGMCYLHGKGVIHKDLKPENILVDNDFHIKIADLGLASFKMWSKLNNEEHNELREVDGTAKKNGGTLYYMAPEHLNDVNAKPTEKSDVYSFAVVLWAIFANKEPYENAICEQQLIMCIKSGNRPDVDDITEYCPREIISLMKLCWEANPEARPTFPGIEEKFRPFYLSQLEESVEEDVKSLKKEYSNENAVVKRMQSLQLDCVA

Row | IC50 [nM] | SMILES
1 | 0.1 to 1000 | O=C(N[C@H]1COc2cccnc2NC1=O)c1cc(C2(c3ccccc3)CC2)[nH]n1 [Example 91, (S)—N-(4-oxo-2,3,4,5-tetrahydropyrido[3,2-b][1,4]oxazepin-3-yl)-5-(1-phenylcyclopropyl)-1H-pyrazole-3-carboxamide]
2 | 0.1 to 1000 | Cc1nc(C(=O)N[C@@H]2C(=O)N(C)c3nccnc3[C@@H]3C[C@H]23)cn1Cc1ccccc1 [Example 208]
3 | 0.1 to 1000 | CN1C(=O)[C@@H](NC(=O)c2ncc(Cc3ccccn3)s2)COc2cccnc21 [Example 213, (S)—N-(5-methyl-4-oxo-2,3,4,5-tetrahydropyrido[3,2-b][1,4]oxazepin-3-yl)-5-(pyridin-2-ylmethyl)thiazole-2-carboxamide]
4 | 0.1 to 1000 | CN1C(=O)[C@@H](NC(=O)c2nn(Cc3ccc(F)cn3)cc2F)COc2ccccc21 [Example 214, (S)-4-fluoro-1-((5-fluoropyridin-2-yl)methyl)-N-(5-methyl-4-oxo-2,3,4,5-tetrahydrobenzo[b][1,4]oxazepin-3-yl)-1H-pyrazole-3-carboxamide]
5 | 0.1 to 1000 | CN1C(=O)[C@@H](NC(=O)c2noc(Cc3ccccc3)n2)COc2cccnc21 [Example 215, (S)-5-benzyl-N-(5-methyl-4-oxo-2,3,4,5-tetrahydropyrido[3,2-b][1,4]oxazepin-3-yl)-1,2,4-oxadiazole-3-carboxamide]
6 | 0.1 to 1000 | CN1C(=O)[C@@H](NC(=O)c2nn(Cc3ccc(Cl)cn3)cc2F)COc2ccccc21 [Example 216, (S)-1-((5-chloropyridin-2-yl)methyl)-4-fluoro-N-(5-methyl-4-oxo-2,3,4,5-tetrahydrobenzo[b][1,4]oxazepin-3-yl)-1H-pyrazole-3-carboxamide]
7 | 0.1 to 1000 | CN1C(=O)[C@@H](NC(=O)c2nnc(Cc3ccccc3)[nH]2)[C@H]2C[C@H]2c2cc(C#N)cnc21 [Example 218, 5-benzyl-N-((1aS,2S,8bR)-7-cyano-4-methyl-3-oxo-1,1a,2,3,4,8b-hexahydrocyclopropa[d]pyrido[2,3-b]azepin-2-yl)-4H-1,2,4-triazole-3-carboxamide]
8 | 0.1 to 1000 | CN1C(=O)[C@@H](NC(=O)c2ncc(Cc3cccc(C#N)c3)s2)CCc2cccnc21 [Example 219, (S)-5-(3-cyanobenzyl)-N-(9-methyl-8-oxo-6,7,8,9-tetrahydro-5H-pyrido[2,3-b]azepin-7-yl)thiazole-2-carboxamide]
9 | 0.1 to 1000 | COc1cccc(Cn2cc(F)c(C(=O)N[C@H]3COc4ccccc4N(C)C3=O)n2)n1 [Example 220, (S)-4-fluoro-1-((6-methoxypyridin-2-yl)methyl)-N-(5-methyl-4-oxo-2,3,4,5-tetrahydrobenzo[b][1,4]oxazepin-3-yl)-1H-pyrazole-3-carboxamide]
10 | 0.1 to 1000 | C[C@H]1Oc2cccnc2N(C)C(=O)[C@H]1NC(=O)c1nnc(C(F)(F)c2ccccc2)o1 [Example 221, 5-(difluoro(phenyl)methyl)-N-((2R,3S)-2,5-dimethyl-4-oxo-2,3,4,5-tetrahydropyrido[3,2-b][1,4]oxazepin-3-yl)-1,3,4-oxadiazole-2-carboxamide]
11 | 0.1 to 1000 | C[C@H]1Oc2cccnc2N(C)C(=O)[C@H]1NC(=O)c1noc(Cc2ccccc2)n1 [Example 222, 5-benzyl-N-((2R,3S)-2,5-dimethyl-4-oxo-2,3,4,5-tetrahydropyrido[3,2-b][1,4]oxazepin-3-yl)-1,2,4-oxadiazole-3-carboxamide]
12 | 0.1 to 1000 | CN1C(=O)[C@@H](NC(=O)c2nn(Cc3ncccn3)cc2F)COc2ccccc21 [Example 224, (S)-4-fluoro-N-(5-methyl-4-oxo-2,3,4,5-tetrahydrobenzo[b][1,4]oxazepin-3-yl)-1-(pyrimidin-2-ylmethyl)-1H-pyrazole-3-carboxamide]
13 | 0.1 to 1000 | CN1C(=O)[C@@H](NC(=O)c2nnc(Cc3ccccc3)o2)CCc2ccccc21 [Example 225, (S)-5-benzyl-N-(1-methyl-2-oxo-2,3,4,5-tetrahydro-1H-benzo[b]azepin-3-yl)-1,3,4-oxadiazole-2-carboxamide]
14 | 0.1 to 1000 | CN1C(=O)[C@@H](NC(=O)c2ncc(Cc3ccccn3)o2)[C@H]2C[C@H]2c2nccnc21 [Example 226]
15 | 0.1 to 1000 | CN1C(=O)[C@@H](NC(=O)c2ncc(C(F)(F)c3ccccc3)o2)[C@H]2C[C@H]2c2nccnc21 [Example 227]

More lines, now with the values behind:

Row | SMILES | IC50 [nM]
16 | O=C(N[C@@H]1C(=O)Nc2c(F)cc(F)cc2[C@@H]2C[C@H]12)c1nnc(Cc2ccccc2)o1 [Example 89B, 5-benzyl-N-((1aS,2S,8bR)-5,7-difluoro-3-oxo-1,1a,2,3,4,8b-hexahydrobenzo[b]cyclopropa[d]azepin-2-yl)-1,3,4-oxadiazole-2-carboxamide] | 0.1 to 1000
17 | O=C(N[C@H]1C(=O)Nc2c(F)cc(F)cc2[C@H]2C[C@H]21)c1cn(Cc2ccccc2)nn1 [Example 90A, 1-benzyl-N-((1aR,2R,8bS)-5,7-difluoro-3-oxo-1,1a,2,3,4,8b-hexahydrobenzo[b]cyclopropa[d]azepin-2-yl)-1H-1,2,3-triazole-4-carboxamide] | 1000 to 10000
18 | O=C(N[C@@H]1C(=O)Nc2c(F)cc(F)cc2[C@@H]2C[C@H]12)c1cn(Cc2ccccc2)nn1 [Example 90B, 1-benzyl-N-((1aS,2S,8bR)-5,7-difluoro-3-oxo-1,1a,2,3,4,8b-hexahydrobenzo[b]cyclopropa[d]azepin-2-yl)-1H-1,2,3-triazole-4-carboxamide] | 0.1 to 1000
19 | [2H]C([2H])([2H])N1C(=O)[C@@H](NC(=O)c2cc(C3(n4nccn4)CC3)on2)CCc2cccnc21 [Example 207] | > 3000
20 | CN1C(=O)[C@@H](NC(=O)c2nn(Cc3cocn3)cc2F)COc2cccnc21 [Example 209, (S)-4-fluoro-N-(5-methyl-4-oxo-2,3,4,5-tetrahydropyrido[3,2-b][1,4]oxazepin-3-yl)-1-(oxazol-4-ylmethyl)-1H-pyrazole-3-carboxamide] | 0.1 to 1000
21 | C[C@H]1Oc2cccnc2N(C)C(=O)[C@H]1NC(=O)c1nnc(Cc2ccccc2)s1 [Example 217, 5-benzyl-N-((2R,3S)-2,5-dimethyl-4-oxo-2,3,4,5-tetrahydropyrido[3,2-b][1,4]oxazepin-3-yl)-1,3,4-thiadiazole-2-carboxamide] | 0.1 to 1000
22 | CN1C(=O)[C@@H](NC(=O)c2nnc(Cc3ccc(F)cc3)o2)[C@H]2C[C@H]2c2nccnc21 [Example 223, 5-(4-fluorobenzyl)-N-((7S,7aS,8aR)-5-methyl-6-oxo-5,6,7,7a,8,8a-hexahydrocyclopropa[d]pyrazino[2,3-b]azepin-7-yl)-1,3,4-oxadiazole-2-carboxamide] | 0.1 to 1000

Test system: FADD-deficient Jurkat cells
Assay: Cellular necroptosis assay (human TNFα-induced)
Type: cell-based
Conditions: Homo sapiens, 48 h, human TNFα 10 ng/mL, viability after 48 h, read-out: Cell IC50
Experimental: Ten concentrations of the test compounds were assessed in duplicate in two different test occasions. […] The day of the experiment cells were diluted to a density of […] (5,000 cells/well) with culture medium and added (40 μL) into the 384-well plate containing 0.2 μL/well of test compounds and reference compounds (CRCs) (200×). Cell plates were then incubated at 37° C.-5% CO2. After 30 min, necroptotic cell death was induced with human TNFα (10 ng/mL) and cell viability was evaluated 48 h later by measuring cellular ATP levels using CellTiter-Glo® kit (Promega). Luminescence was read by using Victor V (Perkin Elmer) multilabel plate reader.

Row | SMILES | IC50 [nM]
23 | CN1C(=O)[C@@H](NC(=O)c2cc(Cc3ccccc3)on2)COc2cccnc21 [Example 142, (S)-5-Benzyl-N-(5-methyl-4-oxo-2,3,4,5-tetrahydropyrido[3,2-b][1,4]oxazepin-3-yl)isoxazole-3-carboxamide] | 0.7
24 | CN1C(=O)[C@@H](NC(=O)c2nnc(Cc3cccc(C#N)c3)[nH]2)COc2cccnc21 [Example 161, (S)-5-(3-cyanobenzyl)-N-(5-methyl-4-oxo-2,3,4,5-tetrahydropyrido[3,2-b][1,4]oxazepin-3-yl)-4H-1,2,4-triazole-3-carboxamide] | 2
25 | CN1C(=O)[C@@H](NC(=O)c2nnc(Cc3cccc(C#N)c3)[nH]2)COc2ccccc21 [Example 163, (S)-5-(3-cyanobenzyl)-N-(5-methyl-4-oxo-2,3,4,5-tetrahydrobenzo[b][1,4]oxazepin-3-yl)-4H-1,2,4-triazole-3-carboxamide] | 1
26 | C[C@H]1Oc2ncccc2N(C)C(=O)[C@H]1NC(=O)c1nnc(Cc2ccccc2)o1 [Example 193, 5-benzyl-N-((3S,4R)-1,4-dimethyl-2-oxo-1,2,3,4-tetrahydropyrido[2,3-b][1,4]oxazepin-3-yl)-1,3,4-oxadiazole-2-carboxamide] | 210
27 | CN1C(=O)[C@@H](NC(=O)c2cn(Cc3ccccc3)nn2)[C@H]2C[C@H]2c2nccnc21 [Example 195, 1-benzyl-N-((7S,7aS,8aR)-5-methyl-6-oxo-5,6,7,7a,8,8a-hexahydrocyclopropa[d]pyrazino[2,3-b]azepin-7-yl)-1H-1,2,3-triazole-4-carboxamide] | 16
28 | CN1C(=O)[C@@H](NC(=O)c2cc(Cc3ccccc3)on2)[C@H]2C[C@H]2c2nccnc21 [Example 197, 5-benzyl-N-((7S,7aS,8aR)-5-methyl-6-oxo-5,6,7,7a,8,8a-hexahydrocyclopropa[d]pyrazino[2,3-b]azepin-7-yl)isoxazole-3-carboxamide] | 3

Same assay, conditions: Homo sapiens, 48 h, read-out: Cell IC50

Row | SMILES | IC50 [nM]
29 | CN1C(=O)[C@@H](NC(=O)c2nc(Cc3ccccc3)n[nH]2)COc2cccnc21 [Example 42, (S)-5-benzyl-N-(5-methyl-4-oxo-2,3,4,5-tetrahydropyrido[3,2-b][1,4]oxazepin-3-yl)-4H-1,2,4-triazole-3-carboxamide] | 0.6

Same assay, conditions: human TNFα 10 ng/mL, viability after 48 h, read-out: Cell IC50

Row | SMILES | IC50 [nM]
30 | CN1C(=O)[C@@H](NC(=O)c2cc(Cc3ccccc3)on2)CC2(CC2)c2ccccc21 [Example 9, (S)-5-benzyl-N-(1-methyl-2-oxo-1,2,3,4-tetrahydrospiro[benzo[b]azepine-5,1′-cyclopropan]-3-yl)isoxazole-3-carboxamide] | 8
